In general, Kd refers to a measure of binding affinity in units of concentration.

Where “and” joins values, the source holds several entries; their conditions need not be identical. Equal entries are not always repeated. Calls of active or inactive are those of the source. The rule behind the calls is not given here.

The target in the experiment is Peptidyl-prolyl cis-trans isomerase FKBP1A (Homo sapiens) (UniProt P62942). In words: small-molecule binding to FKBP12 – biophysical, NMR detection (AID 608). To be noted: purified FKBP12.
Sequence of Peptidyl-prolyl cis-trans isomerase FKBP1A (Homo sapiens) (P62942 whole entry, looked up): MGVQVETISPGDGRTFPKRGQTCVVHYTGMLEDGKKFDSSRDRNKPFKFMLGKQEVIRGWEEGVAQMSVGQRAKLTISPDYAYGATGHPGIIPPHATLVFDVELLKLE
As for `Cc1cc(C(=O)Nc2ccc3c(c2)OCCO3)c(C)o1`, the Kd was > 4 mM (inactive).
On to `O=c1ccc2cc(O)c(O)cc2o1`, for which the Kd was > 4 mM (inactive).
For `Cc1nnc(SCc2ccon2)n1-c1ccccc1`, the equilibrium dissociation constant (Kd) was 0.0385 mM.
As to `S=C(CN1CCCC1=S)N1CCOCC1`, the Kd is > 4 mM (inactive).
On to `O=C1C=CC(=O)c2c(O)cccc21`, for which the Kd is > 4 mM (inactive).
The same measure for `COc1cc([C@@H]2c3cc4c(cc3[C@H](O)[C@H]3COC(=O)[C@H]23)OCO4)cc(OC)c1OC`: > 4 mM (inactive); for `C[N+](C)(C)CC(=O)[O-]`: > 4 mM (inactive).
For `CC(C)=NNC(=O)c1ccccc1`, the Kd is > 4 mM (inactive).
Next, `CN(C)CCNC(CC(=O)Nc1ccccc1)C(=O)O` (centres undefined): > 4 mM (inactive); `Cc1nccc2c1[nH]c1ccccc12`: > 4 mM (inactive); `CN=C(C)c1c(O)n(C)c(=S)n(C)c1=O`: > 4 mM (inactive).
For the compound `O=[N+]([O-])c1ccc(NS(=O)(=O)N2CCCCC2)cc1`, the Kd was 0.06 mM.
Next, `CC(O)(C(=O)O)c1ccccc1` (centres undefined): > 4 mM (inactive).
As for `OC12CC3CC(CC(C3)C1)C2`, the Kd is > 4 mM (inactive).
Consider `CC(=O)O[C@@H]1CC2C(C)(C)C(=O)C=C[C@]2(C)C2CC[C@@]3(C)[C@H](c4ccoc4)OC(=O)[C@H]4O[C@]43[C@@]21C` (some centres undefined), for which the Kd is > 4 mM (inactive).
The same measure for `CCOc1ccc(N2C(=O)CCC2=O)cc1`: > 4 mM (inactive).
As for `Cc1cc(C)n2nc(Cc3ccccc3)nc2n1`, the Kd was > 4 mM (inactive).
Regarding `CC(=O)CNc1cc(CNC(C)=O)c(C)cc1C`, the Kd is > 4 mM (inactive).
Regarding `OCc1ccc2c(c1)CCO2`, the Kd is > 4 mM (inactive).
Consider `O=C(O)c1cc2ccccc2s1`, for which the Kd is > 4 mM (inactive).
Consider `CCOC(=O)c1ccc(F)c(F)c1`, for which the Kd is > 4 mM (inactive).
As to `CCNC(=S)N1CCC(C(N)=O)CC1`, the Kd is > 4 mM (inactive).
Next, `CCOc1ccc2ccccc2c1C(=O)N1CCOCC1`: > 4 mM (inactive).
The same measure for `c1ccc2c(c1)nc(-c1cscn1)n2Cc1ccc(-c2nn[nH]n2)cc1`: “inactive”; for `O=CN1CCN(C(=O)c2ccc(F)cc2)CC1`: > 4 mM (inactive).
The same measure for `OC1CCN(c2nccc(C(F)(F)F)n2)CC1`: > 4 mM (inactive).
As for `O=C(Nc1nncs1)c1c(F)c(F)c(F)c(F)c1F`, the Kd is > 4 mM (inactive).
With `NS(=O)(=O)c1ccc(NC(=O)C2CC2)cc1`, the Kd is > 4 mM (inactive).
For `NC(=O)c1ccc(Cl)c(N2C(=O)CCC2=O)c1`, the Kd was > 4 mM (inactive).
The same measure for `Cc1nc(NCc2ccco2)nc2c1C(=O)CC(C)C2` (centres undefined): > 4 mM (inactive); for `COc1ccc(N/C(N)=N\c2nc(C)cc(C)n2)cc1`: > 4 mM (inactive).
Regarding `COC(=O)Nc1c(C)n(C)n(-c2ccccc2)c1=O`, the Kd was > 4 mM (inactive).
In the case of `CC(=O)O[C@@H]1c2c(ccc3ccc(=O)oc23)OC(C)(C)[C@@H]1OC(=O)CC(C)C`, the Kd was > 4 mM (inactive).
`O=C1c2ccncc2C(=O)N1CO`: the Kd was > 4 mM (inactive).
The same measure for `CC(=O)Nc1cnn(Cc2ccc(Br)cc2)c1`: > 4 mM (inactive).
The same measure for `Cc1nc2cc(NC(=O)Nc3nccs3)ccc2n1C`: > 4 mM (inactive).
Consider `CC1(C)C2CC(=O)[C@]3(C)C(CC[C@@]4(C)[C@H](c5ccoc5)OC(=O)C5OC543)[C@@]2(C)[C@@H](O)C[C@H]1O` (some centres undefined), for which the Kd is > 4 mM (inactive).
With `CS(=O)(=O)Nc1ccc(C(=O)N2CCCCC2)cc1`, the Kd was > 4 mM (inactive).
Next, `Cc1cc(NC(=O)c2ocnc2C)no1`: > 4 mM (inactive); `CC1=NCCc2c1[nH]c1cc(O)ccc21`: > 4 mM (inactive); `c1cnc(N2CCNCC2)nc1`: > 4 mM (inactive).
`CC1(C)CC(NC(=O)/C=C/C(=O)O)CC(C)(C)N1`: the Kd is > 4 mM (inactive).
The same measure for `Cc1onc(-c2c(Cl)cccc2Cl)c1C(N)=O`: > 4 mM (inactive); for `COC(=O)c1sccc1S(=O)(=O)N1CCCC1`: > 4 mM (inactive).
In the case of `CC(=O)c1cccc(NC2=NCC(C)(C)S2)c1`, the Kd is > 4 mM (inactive).
Turning to `Cc1ccc(SCC(=O)N2CCOCC2)cc1`, the Kd is 0.022 mM and 0.012 mM.
As to `CCOC(=O)Cn1cnc2sc3c(c2c1=O)CCC3`, the Kd was > 4 mM (inactive).
Consider `C[C@@H]1CC[C@@]2(NC1)O[C@H]1C[C@H]3C4CC=C5C[C@@H](O)CC[C@]5(C)C4CC[C@]3(C)C1[C@@H]2C` (some centres undefined), for which the Kd is > 4 mM (inactive).
As to `CC(C)=CCc1c(O)cc(C)oc1=O`, the Kd is > 4 mM (inactive).
The same measure for `O=C(Nc1ccc(F)cc1F)c1ccco1`: > 4 mM (inactive); for `CCCCn1c(S(=O)(=O)O)nc2ccccc21`: > 4 mM (inactive).
`O=C(O)c1snnc1-c1ccccc1`: the Kd was > 4 mM (inactive).
Next, `CC(=O)N/N=C(\C)c1cccc(N)c1`: > 4 mM (inactive); `COc1ccc2c(c1)OC[C@@H](Cc1ccc(OC)c(OC)c1)[C@H]2O`: > 4 mM (inactive); `CCN1CCN(CCCNc2ncnc3nc[nH]c23)CC1`: > 4 mM (inactive).
Regarding `CC(=O)O[C@@H]1CC2C(C)(C)[C@H](O)C[C@H](O)[C@]2(C)C2CC[C@@]3(C)C(=CC(=O)O[C@H]3c3ccoc3)[C@@]21C` (some centres undefined), the Kd is > 4 mM (inactive).
The same measure for `CC(=O)OC1CCC23C(=O)OC45CCC(C6=CC(=O)OC6)C4(C)CCC2C5CCC3(O)C1` (centres undefined): > 4 mM (inactive).
As for `CSc1ccc(/C=c2\sc3ncnn3c2=O)cc1`, the Kd is > 4 mM (inactive).
For the compound `Cc1cc2nc3c(=O)[nH]c(=O)nc-3n(CC(O)C(O)C(O)CO)c2cc1C` (centres undefined), the Kd is > 4 mM (inactive).
Consider `Cc1cc(C(=O)Nc2cccnc2)no1`, for which the Kd was > 4 mM (inactive).
Take `O=S(=O)(c1ccc(F)c(Cl)c1)N1CCCC1`: the Kd is > 4 mM (inactive).
The same measure for `CSc1ncc(C(=O)O)n1Cc1ccccc1`: > 4 mM (inactive); for `CC(=O)O[C@@H]1CC2C(C)(C)C=CC(=O)[C@]2(C)C2CC[C@@]3(C)[C@H](c4ccoc4)OC(=O)C4OC43[C@@]21C` (some centres undefined): > 4 mM (inactive).
Regarding `Cc1ccc(-c2nn3c(C)nnc3s2)cc1N`, the Kd is > 4 mM (inactive).
On to `NC(=O)C1CC2C=CC1C2` (centres undefined), for which the Kd is > 4 mM (inactive).
For `Cc1nc2ccccc2c(=O)[nH]1`, the Kd was > 4 mM (inactive).
As to `CC(=O)c1ccc2c(c1)OCCO2`, the Kd was > 4 mM (inactive).
Regarding `COc1ccc(-c2ccc(OC)cc2C(=O)O)cc1`, the Kd was > 4 mM (inactive).
Take `COc1ccc2c(c1)c1n[nH]c(=S)nc1n2C`: the Kd was > 4 mM (inactive).
Regarding `Nc1ccc(O)cn1`, the Kd is > 4 mM (inactive).
With `Nc1ccc(NC(=O)c2ccco2)c(Cl)c1`, the Kd was > 4 mM (inactive).
`O=C(O)c1ccc(NCc2cccnc2)cc1`: the Kd was > 4 mM (inactive).
`COCC(=O)/C=C1\Sc2ccccc2N1C`: the Kd was > 4 mM (inactive).
As for `CC(=O)c1cc(C)ccc1O`, the Kd is > 4 mM (inactive).
`CNc1nc(N)c(C(=O)C(C)(C)C)s1`: the Kd was > 4 mM (inactive).
As for `COc1ccc(Cl)c(S(=O)(=O)N2CCCC2)c1`, the Kd was > 4 mM (inactive).
Next, `CNC(=S)Nc1ccc(C(=O)O)cc1`: > 4 mM (inactive); `CCOc1ccc(OCC(=O)N2CCOCC2)cc1`: “inactive”; `O=C(NCc1cccc(Cl)c1)c1cccnc1`: > 4 mM (inactive).
For `O=C(CC1Nc2ccccc2NC1=O)Nc1ccc(O)cc1` (centres undefined), the Kd is > 4 mM (inactive).
For `Cc1cc(OCC(=O)N2CCOCC2)ccc1NC(=O)OCc1ccccc1`, the Kd is > 4 mM (inactive).
As to `CC(C)=CCc1c2c(c(O)c3c(=O)c(O)c(-c4ccccc4)oc13)C=CC(C)(C)O2`, the Kd was > 4 mM (inactive).
Next, `NC(=O)c1c(Cl)nsc1-c1ccccc1Cl`: > 4 mM (inactive); `COc1nc(C)ccc1-c1noc(-c2ccncc2)n1`: > 4 mM (inactive); `CN1CCN(C(=O)c2ccccc2C(=O)O)CC1`: > 4 mM (inactive).
Regarding `Cc1occc1C(=O)Nc1nccs1`, the Kd was > 4 mM (inactive).
In the case of `CN(C)c1ccc2c(=O)[nH][nH]c(=O)c2c1`, the Kd was > 4 mM (inactive).
The same measure for `Fc1ccc(F)c(CN2CCN(c3ncccn3)CC2)c1`: > 4 mM (inactive); for `Cc1ccccc1C(=O)Nn1cnnc1`: > 4 mM (inactive); for `COC1=CC(=O)C(O)=C/C1=C\C=C\c1ccccc1`: > 4 mM (inactive).
Consider `c1ccc(-c2nsc(N3CCCNCC3)n2)cc1`, for which the Kd was > 4 mM (inactive).
Next, `CS(=O)(=O)N1CCN(c2ccccc2F)CC1`: > 4 mM (inactive); `Cc1cccc(NC(=O)NC(N)=O)c1`: > 4 mM (inactive).
As for `COc1cc(C)c(Cl)cc1S(=O)(=O)N(C)C`, the Kd was > 4 mM (inactive).
In the case of `COc1cccc(/C=C/C(=O)O)c1C(C)C`, the Kd was > 4 mM (inactive).
Regarding `Cc1nc2ccccc2c(=O)n1N1C(=O)CCCC1=O`, the Kd was > 4 mM (inactive).
As to `O=C(O)Cn1cc(C(=O)c2cccs2)c2ccccc21`, the Kd was > 4 mM (inactive).
Turning to `Nc1ccc2sccc2c1`, the Kd is > 4 mM (inactive).
For `CCOC(=O)c1ccc(NS(=O)(=O)N2CCOCC2)cc1`, the Kd result was “inactive”.
The same measure for `CS(=O)(=O)NC1CCN(Cc2ccccc2)CC1`: > 4 mM (inactive).
The same measure for `Cc1ccc(NC(=O)CC2NCCNC2=O)c(C)c1` (centres undefined): > 4 mM (inactive).
Turning to `O=C(O)c1ccc2nsnc2c1`, the Kd was > 4 mM (inactive).
In the case of `COC1=CC(=O)C=C(OC)C1=O`, the Kd is > 4 mM (inactive).
With `NC1=NCc2ccccc21`, the Kd is > 4 mM (inactive).
